Measured values: US11523997B2, “Method of providing celiprolol therapy to a patient” (Assistance Publique-Hôpitaux de Paris (AP-HP), priority 2017, dated 2022)

Tests used:
[1] = tested on: patients with molecularly confirmed vascular EDS; experiment: Long-term cohort follow-up of vEDS patients treated with celiprolol: patient survival (Kaplan-Meier, Cox model); type: in vivo, human; design: Survival of patients at 1 year of follow-up / Survival of patients at 5 years of follow-up / Survival of patients at 10 years of follow-up / Overall patient survival (Kaplan-Meier) / Survival at end of follow-up in those treated with celiprolol / Survival according to type of variant: Group I / Survival according to type of variant: Group II / Survival according to type of variant: Group III: concentration or dose not given beside the values
Description: (§1) All patients with clinically and molecularly diagnosed vEDS that were actively followed clinically in the French National Referral Centre for Rare Vascular Diseases (HEGP, AP-HP, Paris, France) between January 2000 and March 2017 were screened for participation. During the initial evaluation of the first affected family member seeking medical attention for symptoms related to vEDS (index case), familial medical history was recorded and investigation performed in the first-degree relatives whenever possible. A dedicated database for vEDS was created at our institution in 2011. All relevant clinical data of every vEDS patient followed by our centre was entered into this database retrospectively from the year 2000 until 2011, and prospectively thereafter until Mar. 15, 2017. The database contains all available medical history related to the pathology before the initial work-up and obtained during the follow-up either through systematic visits or those caused by a new clinical event. Thus, the occurrence of any acute arterial, gastrointestinal, pulmonary and other vEDS-related events was systematically recorded. In case of death during follow-up, the time and cause of death were entered into the database. This study was formally approved by the IDF ethics committee (IRB registration #00001072) and the database was held in compliance with French legislation on patient privacy.
(§2) All vEDS patients benefited from standardized whole body arterial monitoring by Doppler Ultrasound (DUS) and CT angiogram and/or MRA. Such investigations were performed at baseline (initial assessment at molecular diagnosis) and was repeated every 12 to 15 months in asymptomatic patients. For arterial events that occurred before molecular diagnosis, location of arterial segments was retrieved from hospitalization and imaging reports or examinations, when available. In case of an acute arterial event, symptomatic arterial beds/segments were monitored by any necessary diagnostic and therapeutic means (CT-angiogram, DUS, angiography in case of embolization). […] For optimized management of arterial, gastrointestinal, and pulmonary emergencies, patients were given direct access to the medical team of our centre.
(§3) Since the publication of the BBest trial in 2011, all included patients followed by our centre and not already treated with celiprolol were offered to switch to celiprolol. Patients who were not part of the trial and who were diagnosed during or since the termination of the BBest trial were treated with celiprolol starting at molecular diagnosis. Initial dosing of celiprolol was 100 mg once daily and increased by 100 mg/day every month over a 3-month period to reach the dose of 400 mg/day (200 mg twice daily) (celiprolol hydrochloride). In case of signs of intolerance (fatigue, dizziness) during up-titration or follow-up, the dose of celiprolol was reduced by 100 mg/day until the highest tolerated dose was reached. Dose adjustments were made whenever necessary throughout the patient's follow-up if intolerance was suspected. In accordance with the treatment protocol of the BBEST trial, patients were up-titrated to a maximum dose of 200 mg twice daily.
Adherence to medication was verified by open interview of the patients at each follow-up visit. Low medication adherence was considered if patients admitted to not taking their medication regularly at any moment of their follow-up. Patients were considered intolerant to celiprolol in case of refusal to follow the prescription even at a minimum dose of 100 mg/day. Patients taking another beta-blocker were offered to switch to celiprolol but this change was not mandatory, especially if patients had been clinically silent until molecular diagnosis while under another betablocker. If an acute arterial event occurred, patients were once again offered to switch to celiprolol. […]

[2] = tested on: patients with molecularly confirmed vascular EDS; experiment: Cohort follow-up: incidence of acute arterial events and hospitalizations; type: in vivo, human
Description: as §1, §2
In order to assess arterial morbidity over a long timeline in patients with different follow-up periods, an empirical arterial score was designed for each subject. […]
Quantitative data were expressed as number, median, first and third quartiles; qualitative data were expressed as number and percentage. […] Quantitative variables were compared with the Wilcoxon-Mann-Whitney or the Kruskal Wallis tests, as appropriate. […]

[3] = tested on: patients with molecularly confirmed vascular EDS; experiment: Cohort follow-up: tolerance of celiprolol with 3-month up-titration; type: in vivo, human
Description: as §3
Adherence to medication was verified by open interview of the patients at each follow-up visit. Low medication adherence was considered if patients admitted to not taking their medication regularly at any moment of their follow-up. Patients were considered intolerant to celiprolol in case of refusal to follow the prescription even at a minimum dose of 100 mg/day. Patients taking another beta-blocker were offered to switch to celiprolol but this change was not mandatory, especially if patients had been clinically silent until molecular diagnosis while under another betablocker. If an acute arterial event occurred, patients were once again offered to switch to celiprolol. To reach significant numbers to allow comparative analysis, intolerant patients, patients not taking celiprolol, patients taking another betablocker and non-adherent patients were merged into one group further referred to as “not treated”.

[4] = tested on: patients with a phenotype of vEDS or molecularly proven vEDS; settings: final 200 mg twice a day (BID); 5-year follow-up; 18-month up-titration; cited from earlier work
[5] = Cox's model, stepwise method, n=132
[6] = multivariate Cox's model, n=132 (Groups I and II)
[7] = whole cohort, 90.3% on celiprolol by end of study

Q: Which “Observed reduction in mortality: dose dependence” value ([1]; 400 mg/day better than a smaller dose) does the source give for `CCN(CC)C(=O)Nc1ccc(OCC(O)CNC(C)(C)C)c(C(C)=O)c1` (stereo not shown) [celiprolol, N′-(3-Acetyl-4-(3-((1,1-dimethylethyl)amino)-2-hydroxypropoxy)phenyl)-N, N-diethylurea] here?
A: dose-dependent

Q: And the “Hazard ratio, celiprolol treatment Full dose/No” value [1, 5]?
A: 0.060

Q: What about the “Hazard ratio, celiprolol treatment Half dose/No” value [1, 5] of the same compound?
A: 0.305

Q: And the “Hazard ratio, treatment duration ≥6 years/<6 years” value [1, 5]?
A: 0.058

Q: What about the “Survival according to type of variant: Group I” value ([1]; Group I (glycine missense), n=144 cohort) of the same compound?
A: 65.1%

Q: What about the “Survival according to type of variant: Group II” value ([1]; Group II (splice-site variants, insertions/deletions, duplications)) of the same compound?
A: 89.6%

Q: And the “Survival according to type of variant: Group III” value ([1]; Group III (haploinsufficiency))?
A: 100%

Q: And the “Survival at end of follow-up in those treated with celiprolol” value ([1]; Groups I and II (n=132), treated n=110)?
A: 80.7%

Q: What about the “Survival at end of follow-up according to daily dose: celiprolol 400 mg/day” value ([1]; Groups I and II, 400 mg/day) of the same compound?
A: 85%

Q: And the “Survival at end of follow-up according to daily dose: celiprolol 100-300 mg/day” value ([1]; Groups I and II, 100-300 mg/day)?
A: 62.8%

Q: And the “Hazard ratio, celiprolol treatment Full dose/No” value [1, 6]?
A: 0.048

Q: What about the “Hazard ratio, celiprolol treatment Half dose/No” value [1, 6] of the same compound?
A: 0.303

Q: And the “Hazard ratio, treatment duration ≥6 years/<6 years” value [1, 6]?
A: 0.058

Q: And the “Survival of patients at 1 year of follow-up” value ([1]; n=144, 1 year)?
A: 98.6%

Q: What about the “Survival of patients at 5 years of follow-up” value ([1]; n=144, 5 years) of the same compound?
A: 92%

Q: And the “Survival of patients at 10 years of follow-up” value ([1]; n=144, 10 years)?
A: 82.7%

Q: What about the “Overall patient survival (Kaplan-Meier)” value ([1]; n=144 vascular EDS patients, end of follow-up) of the same compound?
A: 71.6%

Q: And the “Deceased patients with celiprolol treatment (Yes), %” value ([1]; of N=17 deceased patients)?
A: (52.9%)

Q: What about the “Alive patients with celiprolol treatment (Yes), %” value ([1]; of N=127 alive patients) of the same compound?
A: (87.4%)

Q: And the “Survival of patients treated with celiprolol compared with others” value ([1]; overall conclusion)?
A: better survival than others

Q: What about the “Odds ratio (OR), rate of hospitalizations for acute arterial event before and after 2011” value ([2]; before vs after systematic introduction of celiprolol (2011)) of the same compound?
A: 1.72

Q: And the “Effect of celiprolol on mean age of occurrence of first and second new arterial event” value ([2]; in vivo)?
A: without identifiable effect

Q: What about the “Cumulative incidence of a first new arterial event during follow-up” value [2, 7] of the same compound?
A: 56.8%

Q: What about the “Cumulative incidence of a second new arterial event during follow-up” value [2, 7] of the same compound?
A: 29.8%

Q: What about the “Celiprolol intolerance and side effects with about three-month up-titration” value ([3]; full dose, up-titration of about three months) of the same compound?
A: without significant increase

Q: And the “Patients requiring dose reduction due to fatigue and/or dizziness” value ([3]; human, in vivo)?
A: 3.47%

Q: And the “Patients who declared themselves intolerant to celiprolol or refused to take it in fear of intolerance” value ([3]; n=2 of 144)?
A: 1.4%

Q: What about the “reduction in morbidity and mortality” value [4] of the same compound?
A: 35%
